Drawing on US11014911B2, “CDK2 inhibitors” (Pfizer Inc., priority 2019, dated 2021), this text covers Ki for 34 compounds.

The structures appear in SMILES notation. Like-named read-outs stand apart in the source and are kept apart here.

Assay [1] has as its target T1, GSK3β (H350L) (Homo sapiens (Human), UniProt P49841). As to the kind of experiment: biochemical. The settings on record: GSK3β Ki (nM).
Description: (§1) The assay was initiated with the addition of ATP, following 15 minutes pre-incubation of enzyme and inhibitor at room temperature in the reaction mixture. The reaction was stopped after 30 minutes at room temperature by the addition of 50 μL of 80 mM EDTA.
Assay [2] deals with CDK2/Cyclin E1 full length (Homo sapiens (Human), UniProt P24941). As to the kind of experiment: CDK2/Cyclin E1 full length mobility shift assay. The assay is classed as biochemical.
Assay [3] concerns the target T1, GSK3β (H350L). To be noted: read-out: GSK3β Ki.
Description: as §1

T1 sequence (P49841 whole entry, stated change not applied): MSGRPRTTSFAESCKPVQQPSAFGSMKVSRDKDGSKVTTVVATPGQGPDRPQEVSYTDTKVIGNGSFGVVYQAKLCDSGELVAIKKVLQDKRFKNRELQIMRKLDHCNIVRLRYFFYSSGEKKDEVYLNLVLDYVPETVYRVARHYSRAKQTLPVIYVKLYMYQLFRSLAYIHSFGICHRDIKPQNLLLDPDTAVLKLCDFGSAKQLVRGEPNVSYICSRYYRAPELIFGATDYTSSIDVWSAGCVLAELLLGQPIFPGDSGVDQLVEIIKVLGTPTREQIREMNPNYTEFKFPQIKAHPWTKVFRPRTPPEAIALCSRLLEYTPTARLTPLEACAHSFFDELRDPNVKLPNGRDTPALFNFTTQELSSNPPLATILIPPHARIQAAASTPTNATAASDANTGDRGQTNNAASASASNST

Usually Ki stands for a measure of affinity in units of concentration, obtained from inhibition or displacement. `COCc1cc(C(=O)Nc2cc([C@H]3CC[C@@H](OC(=O)NC(C)CC(F)(F)F)C3)[nH]n2)n(C)n1` (single isomer, unassigned) [Example 9]: the values for the Ki (at GSK3β (H350L) [1]; in assay [2]) were greater than 95.3 nM and 1.14 nM, respectively.

Regarding `COCc1cc(C(=O)Nc2cc([C@H]3CC[C@@H](OC(=O)NC(C)CC(F)(F)F)C3)[nH]n2)n(C)n1` (single isomer, unassigned) [Example 10], the inhibition constant Ki on GSK3β (H350L) [1] amounted to 101 nM; in assay [2], 0.25 nM.

As for `CCCNC(=O)O[C@H]1CC[C@@H](c2cc(NC(=O)C3COc4ccccc43)n[nH]2)C1` (single isomer, unassigned) [Example 24], the values for the Ki (on GSK3β (H350L) [1]; in assay [2]) were 20.6 nM and 0.26 nM, respectively.

Regarding `CCCNC(=O)O[C@H]1CC[C@@H](c2cc(NC(=O)C3COc4ccccc43)n[nH]2)C1` (single isomer, unassigned) [Example 25], the Ki at GSK3β (H350L) [1] worked out at 135 nM; in assay [2], 2.7 nM.

For the compound `CC(C)NC(=O)O[C@@H]1CC[C@H](c2cc(NC(=O)C3COc4ccccc43)n[nH]2)C1` (single isomer, unassigned) [Example 56], the inhibition constant Ki at GSK3β (H350L) [1] worked out at 42.8 nM; in assay [2], 0.25 nM.

For the compound `CC(CC(F)(F)F)NC(=O)O[C@@H]1CC[C@H](c2cc(NC(=O)Cc3ccon3)n[nH]2)C1` (single isomer, unassigned) [Example 64], the inhibition constant (Ki) at GSK3β (H350L) [1] stood at 18.7 nM; in assay [2] it was 0.14 nM.

On to `CC(CC(F)(F)F)NC(=O)O[C@@H]1CC[C@H](c2cc(NC(=O)Cc3ccn(C)n3)n[nH]2)C1` (single isomer, unassigned) [Example 66], for which the Ki on GSK3β (H350L) [1] came to 17.9 nM; in assay [2] it was 0.17 nM.

With `COc1cnc(CC(=O)Nc2cc([C@H]3CC[C@@H](OC(=O)NC(C)CC(F)(F)F)C3)[nH]n2)cn1` (single isomer, unassigned) [Example 68], the Ki worked out at 16.3 nM on GSK3β (H350L) [1] and 0.36 nM in assay [2].

In the case of `Cc1ccc(C(=O)Nc2cc([C@H]3CC[C@@H](OC(=O)NC(C)CC(F)(F)F)C3)[nH]n2)cn1` (single isomer, unassigned) [Example 70], the Ki on GSK3β (H350L) [1] worked out at 31.3 nM; in assay [2], 0.35 nM.

`Cc1cc(CC(=O)Nc2cc([C@H]3CC[C@@H](OC(=O)NC(C)CC(F)(F)F)C3)[nH]n2)on1` (single isomer, unassigned) [Example 71]: the values for the Ki (at GSK3β (H350L) [1]; in assay [2]) were 33.8 nM and 1.01 nM, respectively.

In the case of `Cc1cc(CC(=O)Nc2cc([C@H]3CC[C@@H](OC(=O)NC(C)CC(F)(F)F)C3)[nH]n2)on1` (single isomer, unassigned) [Example 72], the Ki at GSK3β (H350L) [1] turned out to be 12.8 nM; in assay [2], 0.15 nM.

Take `Cc1cnc(CC(=O)Nc2cc([C@H]3CC[C@@H](OC(=O)NC(C)CC(F)(F)F)C3)[nH]n2)cn1` (single isomer, unassigned) [Example 74]: the Ki at GSK3β (H350L) [1] was found to be 13.2 nM; in assay [2], 0.3 nM.

For `Cc1ccc(CC(=O)Nc2cc([C@H]3CC[C@@H](OC(=O)NC(C)CC(F)(F)F)C3)[nH]n2)cn1` (single isomer, unassigned) [Example 75], the inhibition constant Ki amounted to 9.59 nM on GSK3β (H350L) [1] and 0.26 nM in assay [2].

For `Cc1ccc(CC(=O)Nc2cc([C@H]3CC[C@@H](OC(=O)NC(C)CC(F)(F)F)C3)[nH]n2)cn1` (single isomer, unassigned) [Example 76], the Ki at GSK3β (H350L) [1] turned out to be 4.96 nM; in assay [2], 0.1 nM.

`COc1cc(CC(=O)Nc2cc([C@H]3CC[C@@H](OC(=O)NC(C)CC(F)(F)F)C3)[nH]n2)ccn1` (single isomer, unassigned) [Example 77]: the figures for the Ki (at GSK3β (H350L) [1]; in assay [2]) were 19.7 nM and 0.39 nM, respectively.

In the case of `COc1cc(CC(=O)Nc2cc([C@H]3CC[C@@H](OC(=O)NC(C)CC(F)(F)F)C3)[nH]n2)ccn1` (single isomer, unassigned) [Example 78], the Ki was 8.9 nM on GSK3β (H350L) [1] and 0.15 nM in assay [2].

For the compound `Cc1ncc(CC(=O)Nc2cc([C@H]3CC[C@@H](OC(=O)NC(C)CC(F)(F)F)C3)[nH]n2)s1` (single isomer, unassigned) [Example 79], the figures for the Ki (on GSK3β (H350L) [1]; in assay [2]) were 16.5 nM and 0.54 nM, respectively.

`Cc1ncc(CC(=O)Nc2cc([C@H]3CC[C@@H](OC(=O)NC(C)CC(F)(F)F)C3)[nH]n2)s1` (single isomer, unassigned) [Example 80]: the Ki on GSK3β (H350L) [1] came out at 8.85 nM; in assay [2] it was 0.15 nM.

On to `Cc1cnc(CC(=O)Nc2cc([C@H]3CC[C@@H](OC(=O)NC(C)CC(F)(F)F)C3)[nH]n2)o1` (single isomer, unassigned) [Example 81], for which the Ki on GSK3β (H350L) [1] amounted to 32.9 nM; in assay [2] it was 1.48 nM.

In the case of `Cc1cnc(CC(=O)Nc2cc([C@H]3CC[C@@H](OC(=O)NC(C)CC(F)(F)F)C3)[nH]n2)o1` (single isomer, unassigned) [Example 82], the results for the inhibition constant (Ki) (on GSK3β (H350L) [1]; in assay [2]) were 12.6 nM and 0.19 nM, respectively.

Take `CC(CC(F)(F)F)NC(=O)O[C@@H]1CC[C@H](c2cc(NC(=O)Cc3cnco3)n[nH]2)C1` (single isomer, unassigned) [Example 83]: the Ki on GSK3β (H350L) [1] amounted to 33.3 nM; in assay [2], 0.69 nM.

On to `Cc1cc(CC(=O)Nc2cc([C@H]3CC[C@@H](OC(=O)N4CCC[C@@H]4C)C3)[nH]n2)on1` [Example 632, (1R,3S)-3-(3-{[(3-methyl-1,2-oxazol-5-yl)acetyl]amino}-1H-pyrazol-5-yl)cyclopentyl (2S)-2-methylpyrrolidine-1-carboxylate], for which the Ki in assay [2] turned out to be 0.36 nM; at GSK3β (H350L) [3], 12.7 nM.

For the compound `Cc1cc(CC(=O)Nc2cc([C@H]3CC[C@@H](OC(=O)N4CCC[C@@H]4C)C3)[nH]n2)no1` [Example 634, (1R,3S)-3-(3-{[(5-methyl-1,2-oxazol-3-yl)acetyl]amino}-1H-pyrazol-5-yl)cyclopentyl (2S)-2-methylpyrrolidine-1-carboxylate], the figures for the inhibition constant (Ki) (in assay [2]; on GSK3β (H350L) [3]) were 0.99 nM and 14.4 nM, respectively.

Take `Cc1cnc(CC(=O)Nc2cc([C@H]3CC[C@@H](OC(=O)N4CCC[C@@H]4C)C3)[nH]n2)o1` [Example 635, (1R,3S)-3-(3-{[(5-methyl-1,3-oxazol-2-yl)acetyl]amino}-1H-pyrazol-5-yl)cyclopentyl (2S)-2-methylpyrrolidine-1-carboxylate]: the values for the Ki (in assay [2]; at GSK3β (H350L) [3]) were 0.53 nM and 16.3 nM, respectively.

As to `Cc1cc(CC(=O)Nc2cc([C@H]3CC[C@@H](OC(=O)N4[C@@H](C)CC[C@@H]4C)C3)[nH]n2)on1` [Example 638, (1R,3S)-3-(3-{[(3-methyl-1,2-oxazol-5-yl)acetyl]amino}-1H-pyrazol-5-yl)cyclopentyl (2S,5S)-2,5-dimethylpyrrolidine-1-carboxylate], the results for the Ki (in assay [2]; at GSK3β (H350L) [3]) were 0.28 nM and 14.9 nM, respectively.

`Cn1ccc(CC(=O)Nc2cc([C@H]3CC[C@@H](OC(=O)N4CCCC4(C)C)C3)[nH]n2)n1` [Example 639, (1R,35)-3-(3-{[(1-methyl-1H-pyrazol-3-yl)acetyl]amino}-1H-pyrazol-5-yl)cyclopentyl 2,2-dimethylpyrrolidine-1-carboxylate]: the Ki in assay [2] came out at 0.47 nM; on GSK3β (H350L) [3], 6.34 nM.

Consider `Cc1cc(CC(=O)Nc2cc([C@H]3CC[C@@H](OC(=O)N4CCCC[C@H]4C)C3)[nH]n2)on1` [Example 641, (1R,3S)-3-(3-{[(3-methyl-1,2-oxazol-5-yl)acetyl]amino}-1H-pyrazol-5-yl)cyclopentyl (2R)-2-methylpiperidine-1-carboxylate], for which the figures for the inhibition constant Ki (in assay [2]; on GSK3β (H350L) [3]) were 0.59 nM and 14.4 nM, respectively.

For the compound `Cc1cc(CC(=O)Nc2cc([C@H]3CC[C@@H](OC(=O)N4CCOC[C@@H]4C)C3)[nH]n2)on1` [Example 642, (1R,3S)-3-(3-{[(3-methyl-1,2-oxazol-5-yl)acetyl]amino}-1H-pyrazol-5-yl)cyclopentyl (3S)-3-methylmorpholine-4-carboxylate], the Ki in assay [2] worked out at 1.37 nM; on GSK3β (H350L) [3], 10.3 nM.

Take `C[C@H]1COCCN1C(=O)O[C@@H]1CC[C@H](c2cc(NC(=O)Cc3cc(F)cc(F)c3)n[nH]2)C1` [Example 644, (1R,3S)-3-(3-{[(3,5-difluorophenyl)acetyl]amino}-1H-pyrazol-5-yl)cyclopentyl (3S)-3-methylmorpholine-4-carboxylate]: the Ki turned out to be 0.33 nM in assay [2] and 8.71 nM on GSK3β (H350L) [3].

Take `C[C@@H]1COCCN1C(=O)O[C@@H]1CC[C@H](c2cc(NC(=O)Cc3cc(F)cc(F)c3)n[nH]2)C1` [Example 645, (1R,3S)-3-(3-{[(3,5-difluorophenyl)acetyl]amino}-1H-pyrazol-5-yl)cyclopentyl (3R)-3-methylmorpholine-4-carboxylate]: the values for the Ki (in assay [2]; at GSK3β (H350L) [3]) were 0.37 nM and 7.23 nM, respectively.

Turning to `COc1ncc(CC(=O)Nc2cc([C@H]3CC[C@@H](OC(=O)N4CCOC[C@@H]4C)C3)[nH]n2)s1` [Example 646, (1R,3S)-3-(3-{[(2-methoxy-1,3-thiazol-5-yl)acetyl]amino}-1H-pyrazol-5-yl)cyclopentyl (3S)-3-methylmorpholine-4-carboxylate], the Ki in assay [2] is 1.03 nM; at GSK3β (H350L) [3], 5.18 nM.

With `COc1ncc(CC(=O)Nc2cc([C@H]3CC[C@@H](OC(=O)N4CCOC[C@H]4C)C3)[nH]n2)s1` [Example 647, (1R,3S)-3-(3-{[(2-methoxy-1,3-thiazol-5-yl)acetyl]amino}-1H-pyrazol-5-yl)cyclopentyl (3R)-3-methylmorpholine-4-carboxylate], the Ki in assay [2] worked out at 1.08 nM; on GSK3β (H350L) [3], 3.39 nM.

Turning to `Cc1cc(CC(=O)Nc2cc([C@H]3CC[C@@H](OC(=O)N4[C@@H](C)COC[C@@H]4C)C3)[nH]n2)on1` [Example 648, (1R,3S)-3-(3-{[(3-methyl-1,2-oxazol-5-yl)acetyl]amino}-1H-pyrazol-5-yl)cyclopentyl (3S,5S)-3,5-dimethylmorpholine-4-carboxylate], the Ki was 0.47 nM in assay [2] and 12.2 nM on GSK3β (H350L) [3].

In the case of `Cc1cc(CC(=O)Nc2cc([C@H]3CC[C@@H](OC(=O)N4CCOCC4(C)C)C3)[nH]n2)on1` [Example 649, (1R,3S)-3-(3-{[(3-methyl-1,2-oxazol-5-yl)acetyl]amino}-1H-pyrazol-5-yl)cyclopentyl 3,3-dimethylmorpholine-4-carboxylate], the Ki came to 0.31 nM in assay [2] and 9.2 nM on GSK3β (H350L) [3].
